Test results taken from ChEMBL document CHEMBL1949654, “Discovery of a Potent Pyrazolopyridine Series of γ-Secretase Modulators” (ACS Med Chem Lett, 2011).
Calls of active or inactive are those of the source. No cut-off for these calls is given here.

What was measured:
[1] = Selectivity ratio of IC50 for gamma secretase-mediated amyloid beta total production to IC50 for gamma secretase-mediated amyloid beta (1 to 42) production
HEK293 = test: Inhibition of gamma-secretase expressed in HEK293 cells assessed as reduction in Notch cleavage up to 20 uM; type: cell-based
Rattus norvegicus [2] = test: Antialzheimer activity in CD rat assessed as reduction in amyloid beta total CSF level at 30 mg/kg, po measured after 3 hrs; type: functional, organism-based; set-up: dose 30 mg/kg
Mus musculus = species on record: Mus musculus; test: Inhibition of mouse gamma-secretase assessed as reduction in reduction in Hes-1 expression up to 20 uM
Canis lupus familiaris = species on record: Canis lupus familiaris; test: Inhibition of dog gamma-secretase assessed as reduction in reduction in Hes-1 expression up to 20 uM
[3] = Inhibition of gamma secretase-mediated amyloid beta (1 to 42) production expressed in HEK293 cells overexpressing APP Swedish mutant after 5 hrs by immunoassay; type: cell-based
Rattus norvegicus [4] = test: Antialzheimer activity in CD rat assessed as reduction in amyloid beta (1 to 40) CSF level at 30 mg/kg, po measured after 3 hrs; type: functional, organism-based; set-up: dose 30 mg/kg
[5] = Drug uptake in CD rat plasma at 30 mg/kg, po measured after 3 hrs; type: ADME, organism-based; set-up: dose 30 mg/kg, route oral
Rattus norvegicus [6] = test: Antialzheimer activity in CD rat assessed as reduction in amyloid beta (1 to 42) CSF level at 30 mg/kg, po measured after 3 hrs; type: functional
[7] = Drug uptake in CD rat brain at 30 mg/kg, po measured after 3 hrs; type: ADME, organism-based; set-up: dose 30 mg/kg, route oral; conditions: read-out: Drug uptake
P-glycoprotein [8] = test: Drug transport assessed as P-glycoprotein-mediated apical to basolateral permeability; type: ADME; conditions: not told; read-out: permeability
P-glycoprotein [9] = test: Drug transport assessed as P-glycoprotein-mediated basolateral to apical permeability; type: ADME; conditions: not told; read-out: permeability
P-glycoprotein [10] = test: Drug transport assessed as P-glycoprotein-mediated efflux ratio of compound transport from basolateral to apical side over apical to basolateral side; type: ADME; conditions: not told

Compound	Ratio IC50 [1]	inhibition (Mus musculus)	inhibition (Canis lupus familiaris)	IC50 [3] [µM]	concentration at 3 h [5] [nM]	concentration at 3 h [7] [nM]	Papp A→B (P-glycoprotein [8]) [×10⁻⁶ cm/s]	Papp B→A (P-glycoprotein [9]) [×10⁻⁶ cm/s]	efflux ratio (P-glycoprotein [10])	inhibition (HEK293)	inhibition (Rattus norvegicus [2])	inhibition (Rattus norvegicus [4])	Activity (Rattus norvegicus [6])
C=C(c1ccc(F)cc1)n1cc(Cl)cc2c(-c3ccc(-n4cnc(C)c4)c(OC)c3)nnc1-2	42	inactive	inactive	0.481	–	–	–	–	–	inactive	inactive	inactive	–
COc1cc(-c2nnc3n([C@@H](CO)c4ccc(F)cc4)cc(Cl)cc2-3)ccc1-n1cnc(C)c1	119	inactive	inactive	0.168	2150	100	–	–	–	inactive	inactive	inactive	inactive
COc1cc(-c2nnc3n([C@@H](C)c4ccc(F)cc4)cc(CF)cc2-3)ccc1-n1cnc(C)c1	32	inactive	inactive	0.634	–	–	–	–	–	inactive	inactive	inactive	–
COc1cc(-c2nnc3n(C(CCS(C)(=O)=O)c4ccc(F)cc4)cc(Cl)cc2-3)ccc1-n1cnc(C)c1 (stereo unspecified)	63	inactive	inactive	0.316	–	–	–	–	–	inactive	inactive	inactive	–
COc1cc(-c2nnc3n([C@@H](C)c4ccc(F)cc4)cc(CO)cc2-3)ccc1-n1cnc(C)c1	248	inactive	inactive	0.081	–	–	–	–	–	inactive	inactive	inactive	–
CC[C@@H](c1ccc(F)cc1)n1cccc2c(-c3ccc(-n4cnc(C)c4)c(OC)c3)nnc1-2	42	inactive	inactive	0.14	–	–	–	–	–	inactive	inactive	inactive	–
COc1cc(-c2nnc3n([C@@H](C)c4ccc(F)cc4)cc(C(C)(F)F)cc2-3)ccc1-n1cnc(C)c1	66	inactive	inactive	0.143	30	–	–	–	–	inactive	inactive	inactive	inactive
COc1cc(-c2nnc3n([C@@H](C)c4cc(F)c(F)c(F)c4)cc(Cl)cc2-3)ccc1-n1cnc(C)c1	186	inactive	inactive	0.107	5020	1220	–	–	–	inactive	inactive	inactive	45%
CC[C@@H](c1cc(F)c(F)c(F)c1)n1cc(Cl)cc2c(-c3ccc(-n4cnc(C)c4)c(OC)c3)nnc1-2	463	inactive	inactive	0.043	7230	1610	–	–	–	inactive	inactive	inactive	30%
COc1ccc(Cn2cccc3c(-c4ccc(-n5cnc(C)c5)c(OC)c4)nnc2-3)cc1	119	inactive	inactive	0.168	–	–	–	–	–	inactive	inactive	inactive	–
COc1ccc(COCc2cc3c(-c4ccc(-n5cnc(C)c5)c(OC)c4)nnc-3n([C@@H](C)c3ccc(F)cc3)c2)cc1	110	inactive	inactive	0.182	–	–	–	–	–	inactive	inactive	inactive	–
COc1cc(-c2nnc3n([C@@H](C)c4cc(F)ccc4F)cc(Cl)cc2-3)ccc1-n1cnc(C)c1	151	inactive	inactive	0.071	2520	740	–	–	–	inactive	inactive	inactive	24%
COc1cc(-c2nnc3n([C@@H](C)c4ccc(F)cc4)cc(C(F)F)cc2-3)ccc1-n1cnc(C)c1	52	inactive	inactive	0.123	–	–	–	–	–	inactive	inactive	inactive	inactive

Now from value to compound, other results behind:

Ratio IC50 [1]	inhibition (Mus musculus)	inhibition (Canis lupus familiaris)	IC50 [3] [µM]	concentration at 3 h [5] [nM]	concentration at 3 h [7] [nM]	Papp A→B (P-glycoprotein [8]) [×10⁻⁶ cm/s]	Papp B→A (P-glycoprotein [9]) [×10⁻⁶ cm/s]	efflux ratio (P-glycoprotein [10])	Compound	inhibition (HEK293)	inhibition (Rattus norvegicus [2])	inhibition (Rattus norvegicus [4])	Activity (Rattus norvegicus [6])
6	inactive	inactive	0.038	–	–	–	–	–	COc1cc(-c2nnc3n([C@@H](C)c4cc(F)cc(F)c4)cc(Cl)cc2-3)ccc1-n1cnc(C)c1	inactive	inactive	inactive	–
87	inactive	inactive	0.231	–	–	–	–	–	COc1cc(-c2nnc3n(C(C)c4ccc(F)cc4)cccc2-3)ccc1-n1cnc(C)c1 (racemic)	inactive	inactive	inactive	–
60	inactive	inactive	0.332	–	–	–	–	–	COc1cc(-c2nnc3n([C@H](C)c4ccc(F)cc4)cccc2-3)ccc1-n1cnc(C)c1	inactive	inactive	inactive	–
301	inactive	inactive	0.066	6510	880	–	–	–	COc1cc(-c2nnc3n([C@@H](C)c4ccc(F)c(F)c4)cc(Cl)cc2-3)ccc1-n1cnc(C)c1	inactive	inactive	inactive	27%
161	inactive	inactive	0.085	–	–	4.8	41.2	8.5	COc1cc(-c2nnc3n([C@@H](C)c4ccc(F)cc4)cc(C)cc2-3)ccc1-n1cnc(C)c1	inactive	inactive	inactive	inactive
60	inactive	inactive	0.172	–	–	–	–	–	COc1cc(-c2nnc3n([C@@H](C)c4ccc(F)cc4)cc(C#N)cc2-3)ccc1-n1cnc(C)c1	inactive	inactive	inactive	–
94	inactive	inactive	0.117	1960	140	8.5	32.4	3.85	COc1cc(-c2nnc3n([C@@H](C)c4cc(F)cc(F)c4)cccc2-3)ccc1-n1cnc(C)c1	inactive	inactive	inactive	inactive
205	inactive	inactive	0.097	2880	170	0.9	31.4	33.8	COc1cc(-c2nnc3n([C@@H](C)c4ccc(F)cc4)cccc2-3)ccc1-n1cnc(C)c1	inactive	inactive	inactive	inactive
288	inactive	inactive	0.07	2740	920	–	–	–	COc1cc(-c2nnc3n([C@@H](C)c4ccc(F)cc4)cc(Cl)cc2-3)ccc1-n1cnc(C)c1	inactive	inactive	inactive	32%
